Results from paper PMC5987406, “Antioxidant, anticholinesterase and antifatigue effects of Trichilia catigua (catuaba)” (BMC Complementary and Alternative Medicine, 2018).

How the values were obtained:
[1] = system: mice; test: Classical fear conditioning, scopolamine-induced amnesia; assay type: in vivo; conditions: scopolamine 2 mg/kg i.p., not statistically significant
Method: Male albino Swiss mice (30-50 g) and male Wistar rats (300-450 g), 3–4 months old, from our vivarium (Department of Psychobiology, UNIFESP) were housed in rooms with 12 h light-dark circle, controlled temperature (21 ± 2 °C), with filtered tap water and food (Nuvilab, Brazil) ad libitum, except during the experiments. The animals were kept in polypropylene cages (4–5 animals each) with pine shavings as bedding material. […] The animals were euthanized in CO2 chamber or by decapitation (in the case of stress by immobilization test). The protocols followed the International Guiding Principles for Biomedical Research Involving Animals and were approved by UNIFESP ethics committee (Comissão de Ética no Uso de Animais, from Universidade Federal de São Paulo, São Paulo, Brazil) - protocol #0752/07.
On the training day, the animals (except the negative control group) received scopolamine (2 mg/kg, i.p. - Sigma, St. Louis, MO, USA) in 0.9% saline 30 min after the extract treatment and 30 min later were placed individually in the context cage dotted with some visual cues. After 2 min of habituation, three electrical shocks (0.3 mA, 1 s duration and interval of 10s) were delivered to the paws of the animal (adapted from Soeiro et al.). […]

[2] = DPPH assay (radical scavenging); conditions: 95% confidence interval in parenthesis; linear regression, mean of 3–4 assays
Method: The test was based on the protocol of Duarte-Almeida et al. [25], with some modifications. An ethanolic solution of 2,2-diphenyl-1-picryl hydrazyl (DPPH) (Sigma, St. Louis, MO, USA) was prepared in order to produce an absorbance between 0.8 and 0.99 at 517 nm. One hundred microliters of each extract diluted in ethanol (Synth, Diadema, Brazil) at initial concentrations of 0.004, 0.01, 0.04, 0.1, 0.4 and 1.0 mg/mL were pipetted in a cuvette and after the addition of 900 μL of DPPH the cuvette was placed in a spectrophotometer (PG Instruments LTD, Leicestershire, United Kingdom) and read during 2 min at 517 nm. Ethanol (vehicle) was used as control and rutin (Acros Organics, New Jersey, USA) as positive control. The percentage of DPPH scavenger (S) was calculated by the formula: SDPPH = [(Ac - As)/Ac] × 100, where Ac = absorbance for the control and As = absorbance for the sample.
The statistical analysis was carried out using the Statistica® and Graph Pad Prism® software. The EC50 for DPPH and IC50 for acetylcholinesterase were calculated by linear regression using the mean of scavenge or inhibition for each concentration of the tested drugs. […] We adopted a p value of 0.05 as statistically significant.

SMILES | Reduction of freezing time compared with control mice that did not receive scopolamine [1] [%] | DPPH scavenging EC50 [2]
CN1[C@@H]2C[C@@H](OC(=O)[C@H](CO)c3ccccc3)C[C@H]1[C@@H]1O[C@@H]12 [scopolamine] | 40.9 | 
C[C@@H]1O[C@@H](OC[C@H]2O[C@@H](Oc3c(-c4ccc(O)c(O)c4)oc4cc(O)cc(O)c4c3=O)[C@H](O)[C@@H](O)[C@@H]2O)[C@H](O)[C@H](O)[C@H]1O [Rutin, rutin] |  | 44 (9–216) μg/mL
